US20230234920A1, “Azirine Containing Compounds as Anti-Angiogenesis Agents and a Process for the Preparation Thereof” (COUNCIL OF SCIENTIFIC & INDUSTRIAL RESEARCH, priority 2020, published 2023)

Assays:
HUVECs = assay: Wound healing (scratch) migration assay; type: cell-based, human; details: for wound closure: 12 h
Experimental: FIG. 4 represents In vitro wound closure assay showing effect of Compound 1 migration of HUVECs. (A) ECs were incubated with 2.5% FBS in the presence of VEGF, sunitinib and Compound 1 at the indicated concentrations for 24 h after linear scratched wounds were created in the confluent cells. Post treatment photographs were taken at 0 hr, 12 h and 24 h using an inverted microscope at 10×magnification. (B) Data were quantified using Image J software and graphs were plotted by calculating the % migration of that vehicle treated cells (control). Compound 1 inhibits the wound closure by ECs in a dose dependent manner. The values represent the mean±SEM from (n=3) independent experiments with significant difference compared from control at *p<0.05.
As per previous reports, some anti-angiogenic compounds also show anti-migratory effect by modulating the expression of proteins responsible for blood vessels formation. A Scratch was made to the confluent endothelial cells containing VEGF (50 ng/mL) and sunitinib (50 nM) as a positive and negative control respectively and Compound 1 at 250 nM and 125 nM as a test compound. […] This might contribute to its potent anti-angiogenic effect.
Endothelial cells were grown inside 6-well plate at a confluency rate of 90%. And then with the help of 200 μL tip a straight line scratch was made in the middle of the grown ECs. After giving a gentle wash with 1×PBS, control group received vehicle in 2.5% FBS media. VEGF at 50 ng/mL as a positive control and sunitinib at 50 nM concentration was used as a negative control. Compound 1 at a dose concentration of 250 nM and 125 nM were used onto the wounded cells to observe its anti-migratory effect. After 0 h, 12 h and 24 h of post treatment the wound closure area was observed and micrographed using an inverted microscope (Olympus, Centre Valley, Pa., USA) and were analysed by Image J software. Control well at 100% was used to express inhibition percentage and the assay was performed for three-five times independently.

HCT116 colon tumor = HCT116 colon tumor model in nude mice; type: in vivo
Experimental: FIG. 12 represents Compound 1 inhibited tumor growth in vivo. Tumor sizes were recorded every alternate day by Vernier caliper measurements and calculated as [4/3*[…]*(length/2)*(width/2)]. (A) Nude mice with induced HCT116 tumor were given vehicle to the control group, sunitinib at (40 mg/kg) as a standard drug given orally and Compound 1 at (25 mg/kg) through IP route for 21 days and tumor regression was calculated for all groups. (B) Nude Mice with induced HCT116 colon tumor were given both, sunitinib and Compound 1 at (25 mg/kg) intra-muscularly for 15 days after attaining a tumor size of 100 mm^3, tumor volume reduction for treated groups were calculated and compared with control. Data are expressed as means±S.E.M. (6 mice/group) with significant difference compared with control at p<0.0001.
HCT 116 (Human colon cancer cell line) cells were trypsinised and the pellet was dissolved in ice chilled 1×PBS. HCT 116 cells suspension to a concentration of (1*10^6) cells in 50 μL PBS solution, were left on ice with occasional agitation. Mice were anaesthetized with ketamine: xylazine (100:10 mg/kg), abdominal side area was shaved and sterilized using 70% ethanol. 50 μL of cell suspension was injected slowly subcutaneously to all the mice. After 2 days, booster dose of tumor cells was injected to all mice as performed previously. The growth of the tumor was measured by using vernier caliper on day 2, 4, 6, 8, 10, 12, 14, 16 18, 20, 23 and presented in the form of tumor volume (mm^3)=[4/3*π*(long axis/2)*(short axis/2)]. After attaining a volume of 100 mm^3 of tumor size, all mice were distributed equally (n=6−8) in 3 groups of controls received vehicle (Olive oil). Sutent (25 mg/kg) as a positive control was given orally and Compound 1 (25 mg/kg) dissolved in olive oil was injected intra-muscularly for 15 days and the tumor size regression was measured on every alternate day as described previously. Post 15 days of treatment, mice from all groups were sacrificed and tumor was excised out and processed further for immunohistochemistry and molecular analysis.

chick CAM = assay: CAM (chick chorio-allantoic membrane) assay; type: in vivo; details: 500 nM and 250 nM
Experimental: (A) Chick CAM assays were used to observe the effect of Compound 1 on angiogenesis in vivo. 1 mm^2 window was made in 8 days old chicken eggs to expose the CAM, and a gelatin disc ([…]) treated with vehicle (0.1% DMSO), sunitinib and Compound 1 at a indicated concentrations were placed on the CAM surface. Post 4 days of incubation, the discs and associated CAM were photographed and excised out, for hemoglobin estimation by drapkin's reagent. (B) Blood vessel density was calculated and Hb. concentration was measured and representative graph was plotted for the control and treatment group and data are represented as mean±SEM with significant difference from control at *p<0.05, **p<0.01 and ***p<0.001.
The eggs were incubated horizontally for 3 days at 37° C. in a 60% humidified atmosphere, using a hybridization incubator (combi-SV 12) with one hour scheduled rotation. Post 3 days of incubation, 2-3 mL of albumin was aspirated from the acute pole of the egg to create false air sac directly over the CAM. Post fertilization (Day 8), a fine blade was used to make an approximate 0.5 cc square incision on the eggshell under sterile conditions and the eggshell window fragment was removed to access the CAM beneath. A piece of gelatin sponge embedded in Compound 1 (500 nM and 250 nM) and sunitinib (2 μM) individually were placed on the CAM of the chicken embryo and incubated for 12 days. Sterile parafilm tape was used to seal back the window and the eggs were further incubated without the rotation setting. After 12 days of incubation the CAM integration was assessed by visual inspection and photographed with a digital camera (Canon EOS); the CAM membrane along with gelatin sponge were harvested and its hemoglobin (Hb.) estimation was done by Drabkin's method according to the manufacturer's protocol (Sigma, St. Louis, Mo.). Absorbance was measured at 540 nm and hemoglobin concentration was calculated.

## CCOC(=O)C1N=C1CCc1ccc(OC)cc1 (racemic) [Compound 1, Ethyl 3-(4-methoxyphenethyl)-2H-azirine-2-carboxylate]
HUVECs; 125 nM
  wound closure: 75%
HUVECs; 250 nM
  wound closure: 60%
HUVECs; 24 h
  migration: complete migration
HCT116 colon tumor; 25 mg/kg IP route for 21 days, vs vehicle
  tumor volume: progressive significant decrease in tumor volume
HCT116 colon tumor; 25 mg/kg, 15 days
  growth of HCT116 cells xenografts: powerful inhibitory effect
HCT116 colon tumor; 25 mg/kg, day 2
  T/C: 94.77%
HCT116 colon tumor; 25 mg/kg, day 4
  T/C: 72.79%
HCT116 colon tumor; 25 mg/kg, day 6
  T/C: 67.93%
HCT116 colon tumor; 25 mg/kg, day 8
  T/C: 66.22%
HCT116 colon tumor; 25 mg/kg, day 10
  T/C: 68.70%
HCT116 colon tumor; 25 mg/kg, day 12
  T/C: 56.83%
HCT116 colon tumor; 25 mg/kg, day 14
  T/C: 49.80%
HCT116 colon tumor; 25 mg/kg, day 16
  T/C: 43.88%
HCT116 colon tumor; 25 mg/kg, vs control group
  vascular density in tumor tissues (CD31): reduced the vascular density in tumor tissues
HCT116 colon tumor; in comparison to vehicle treated control group, end of experiment
  tumor reduction: 62.02%
Chick CAM
  blood vessels density: suppressed blood vessels density
  hemoglobin content: 50 to 60 µg/mL
